Test results published in PMC11697029 (Nature Communications, 2025).

What follows are molecules tested against T1, RmlT (Listeria monocytogenes, UniProt Q8Y838) (assay: isothermal titration calorimetry).
T1 sequence (Q8Y838 1-623): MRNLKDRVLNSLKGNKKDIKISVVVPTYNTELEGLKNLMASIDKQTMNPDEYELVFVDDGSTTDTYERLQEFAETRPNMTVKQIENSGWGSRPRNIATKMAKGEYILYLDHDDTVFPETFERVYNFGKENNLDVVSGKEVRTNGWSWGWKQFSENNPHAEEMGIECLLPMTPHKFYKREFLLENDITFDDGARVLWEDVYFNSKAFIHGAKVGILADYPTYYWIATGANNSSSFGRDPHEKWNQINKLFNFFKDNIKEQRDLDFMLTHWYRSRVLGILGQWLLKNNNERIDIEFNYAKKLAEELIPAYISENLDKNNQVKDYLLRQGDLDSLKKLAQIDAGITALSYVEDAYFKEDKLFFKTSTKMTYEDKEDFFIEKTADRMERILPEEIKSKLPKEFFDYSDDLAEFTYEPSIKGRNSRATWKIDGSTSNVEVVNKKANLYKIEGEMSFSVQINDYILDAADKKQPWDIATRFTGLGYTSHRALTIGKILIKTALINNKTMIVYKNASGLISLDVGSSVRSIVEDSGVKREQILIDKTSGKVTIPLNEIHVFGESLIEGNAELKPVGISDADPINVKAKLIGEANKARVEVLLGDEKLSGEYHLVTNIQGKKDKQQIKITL
Assay type: binding

Kd | Structure (SMILES)
~10 µM | Cc1cn([C@H]2C[C@H](O)[C@@H](COP(=O)(O)OP(=O)(O)O[C@H]3O[C@H](CO)[C@@H](O)[C@H](O)[C@H]3O)O2)c(=O)[nH]c1=O [TDP-glucose]
~13 µM | Cc1cn([C@H]2C[C@H](O)[C@@H](COP(=O)(O)OP(=O)(O)O[C@H]3O[C@@H](C)[C@H](O)[C@@H](O)[C@H]3O)O2)c(=O)[nH]c1=O [TDP-rhamnose]
~50 µM | Cc1cn([C@H]2C[C@H](O)[C@@H](COP(=O)(O)OP(=O)(O)O)O2)c(=O)[nH]c1=O [TDP]
